Test results reported in patent US20160184246A1, “TRANSDERMAL DRUG DELIVERY SYSTEMS FOR AGOMELATINE” (Noven Pharmaceuticals, Inc., priority 2014, published 2016).
In brackets after ≈: the same amount, converted by molar mass.

Tests used:
[1] = tested on: serum hepatic transaminases; settings: in vivo; cited from earlier work
[2] = cited from earlier work
[3] = Solubility of agomelatine in water or aqueous isopropanol (IPA); format: physicochemical; settings: 32° C.
Method: The solubility of agomelatine in water or different concentrations of aqueous isopropanol (IPA) was assessed. As shown in the table below, the solubility of agomelatine in aqueous IPA solutions increased with increasing IPA content. Agomelatine was formulated at its saturation concentration in different concentrations of aqueous IPA and drug flux through human cadaver skin was assessed using a modified Franz-cell apparatus, using 0.1 mL solution per cm^2.

[4] = Pharmacokinetics of oral agomelatine (background); format: in vivo, human; settings: current commercial oral dosage, humans
Method: Oral dosage forms (tablets) of agomelatine have been approved in Europe under the trade names Valdoxan, Melitor, and Thymanax. Each tablet contains 25 mg agomelatine, prescribed at an initial dose of 1 tablet taken at bedtime, which dose may be increased to 2 tablets (50 mg) as needed. Oral agomelatine is well absorbed (although greater in women than in men), however, oral bioavailability is only 5% with large variations. The limited bioavailability is believed to be due to heavy first-pass liver metabolism, predominantly by cytochrome CYP1A2 of the P450 isoenzyme system, which results in conjugated metabolites of hydroxylated and demethylated agomelatine. […] The agomelatine oral tablet product produces a human plasma concentration-time pharmacokinetic (PK) profile with a Cmax of about 6 ng/ml, declining thereafter thereafter with a t1/2 of less than 2 hours.

[5] = cited from earlier work; remark: listed apart in the source

**Q.** With COc1ccc2cccc(CCNC(C)=O)c2c1 [Agomelatine, N-[2-(7-methoxynaphthalen-1-yl)ethyl]acetamide] as the molecule, how does the “increases in serum hepatic transaminases” value [1] read?
**A.** as high as three times the upper limit of normal range

**Q.** What about the “individuals with increases in serum hepatic transaminases” value [1] of the same molecule?
**A.** up to 1%

**Q.** And the “bound to plasma protein” value ([2]; in vivo)?
**A.** 95%

**Q.** What about the “plasma half-life (t1/2)” value ([2]; in vivo) of the same molecule?
**A.** 1 to 2 h

**Q.** What about the oral bioavailability ([2]; oral) of the same molecule?
**A.** 5%

**Q.** What about the solubility ([3]; 0 (water)) of the same molecule?
**A.** 0.4 mg/mL (≈ 1.64 mM)

**Q.** And the solubility ([3]; 25 v/v % aqueous isopropanol, aqueous with cosolvent or surfactant or cyclodextrin, 25 v/v % aqueous IPA)?
**A.** 3 mg/mL (≈ 12.3 mM)

**Q.** What about the solubility ([3]; 50 v/v % aqueous isopropanol, aqueous with cosolvent or surfactant or cyclodextrin, 50 v/v % aqueous IPA) of the same molecule?
**A.** 51 mg/mL (≈ 210 mM)

**Q.** And the solubility ([3]; 75 v/v % aqueous isopropanol, aqueous with cosolvent or surfactant or cyclodextrin, 75 v/v % aqueous IPA)?
**A.** 139 mg/mL (≈ 571 mM)

**Q.** What about the solubility ([3]; 90 v/v % aqueous isopropanol, aqueous with cosolvent or surfactant or cyclodextrin, 90 v/v % aqueous IPA) of the same molecule?
**A.** > 150 mg/mL

**Q.** What about the “systemic delivery of agomelatine after hepatic metabolism” value [4] of the same molecule?
**A.** 1.25 to 2.5 mg

**Q.** What about the solubility in water [5] of the same molecule?
**A.** 0.2 mg/mL (≈ 0.822 mM)
